Assay results taken from patent publication US9024017B2, “Octahydro-cyclopentapyrrolyl antagonists of CCR2” (Janssen Pharmaceutica NV, priority 2012, dated 2015).

Molecular target: T1, CCR2 (Homo sapiens, UniProt P41597)
T1 construct: host or cells: THP-1 (human monocytic cell line)
Assay: MCP-1 Receptor Binding Assay in THP-1 Cells
Details: read-out: MCP1B_v3 IC50
Procedure: Compounds of the invention were subjected to various representative biological tests. […] MCP-1 Receptor Binding Assay in THP-1 Cells Human monocytic cell line THP-1 cells were obtained from American Type Culture Collection (Manassas, Va., USA). The THP-1 cells were grown in RPMI-1640 (RPMI: Roswell Park Memorial Institute Medium-cell culture growth media) supplemented with 10% fetal bovine serum in a humidified 5% CO2 atmosphere at 37° C. The cell density was maintained between […].
THP-1 (cells were incubated with 0.5 nM ^125I labeled MCP-1 (Perkin-Elmer Life Sciences, Inc. Boston, Mass.) in the presence of varying concentrations of either unlabeled MCP-1 (R & D Systems, Minneapolis, Minn.) or test compound for 2 hours at 30° C. in a 96 well plate. Cells were then harvested onto a filter plate, dried, and 20 μL of Microscint 20 was added to each well. Plates were counted in a TopCount NXT, Microplate Scintillation & Luminescence Counter (Perkin-Elmer Life Sciences, Inc. Boston, Mass.). Blank values (buffer only) were subtracted from all values and drug treated values were compared to vehicle treated values. 1 μM cold MCP-1 was used for nonspecific binding.

T1 sequence (P41597 whole entry): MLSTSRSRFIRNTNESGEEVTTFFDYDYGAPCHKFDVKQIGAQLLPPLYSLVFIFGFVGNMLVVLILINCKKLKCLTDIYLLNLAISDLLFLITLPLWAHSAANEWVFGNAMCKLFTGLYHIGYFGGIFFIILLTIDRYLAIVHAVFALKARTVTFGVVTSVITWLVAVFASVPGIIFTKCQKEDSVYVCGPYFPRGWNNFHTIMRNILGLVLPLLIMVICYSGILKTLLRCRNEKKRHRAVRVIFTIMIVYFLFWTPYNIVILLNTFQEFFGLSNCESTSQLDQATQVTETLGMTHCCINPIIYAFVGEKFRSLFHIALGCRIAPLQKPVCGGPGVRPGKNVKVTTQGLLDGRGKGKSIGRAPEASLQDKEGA

| Structure (SMILES) | IC50 [nM] |
| --- | --- |
| COC1COCCC1N[C@@H]1C[C@H]2CN(C(N)=O)C[C@@]2(C(=O)N2CCc3ncc(C(F)(F)F)cc3C2)C1 (relative stereo) [Example 2, (3aR,5R,6aR)-5-(((3S*,4S*)-(3-Methoxytetrahydro-2H-pyran-4-yl)amino)-3a-(3-(trifluoromethyl)-5,6,7,8-tetrahydro-1,6-naphthyridine-6-carbonyl)hexahydrocyclopenta[c]pyrrole-2(1H)-carboxamide] | 60 |
| CO[C@@H]1COCC[C@H]1N[C@@H]1C[C@H]2CN(C(N)=O)C[C@@]2(C(=O)N2CCc3ncc(C(F)(F)F)cc3C2)C1 (relative stereo) [Example 5, (3aR,5R,6aR)-5-(((3S*,4R*)-(3-Methoxytetrahydro-2H-pyran-4-yl)amino)-3a-(3-(trifluoromethyl)-5,6,7,8-tetrahydro-1,6-naphthyridine-6-carbonyl)hexahydrocyclopenta-[c]pyrrole-2(1H)-carboxamide] | 1350 |
| COC1COCCC1N[C@@H]1C[C@H]2CN(C(N)=O)C[C@@]2(C(=O)N2CCc3ccc(C(F)(F)F)cc3C2)C1 (relative stereo) [Example 6, (3aR,5R,6aR)-5-(((3S*,4S*)-3-Methoxytetrahydro-2H-pyran-4-yl)amino)-3a-(7-(trifluoromethyl)-1,2,3,4-tetrahydroisoquinoline-2-carbonyl)hexahydrocyclopenta-[c]pyrrole-2(1H)-carboxamide] | 10 |
| CCOC1COCCC1N[C@@H]1C[C@H]2CN(C(N)=O)C[C@@]2(C(=O)N2CCc3ncc(C(F)(F)F)cc3C2)C1 (relative stereo) [Example 9, (3aR,5R,6aR)-5-(((3S*,4S*)-3-Ethoxytetrahydro-2H-pyran-4-yl)amino)-3a-(3-(trifluoromethyl)-5,6,7,8-tetrahydro-1,6-naphthyridine-6-carbonyl)hexahydrocyclopenta-[c]pyrrole-2(1H)-carboxamide] | 190 |
| COC1COCCC1N[C@@H]1C[C@H]2CN(C(N)=O)C[C@@]2(C(=O)NCc2cccc(C(F)(F)F)c2)C1 (relative stereo) [Example 10, (3aR,5R,6aR)-5-(((3S*,4S*)-3-Methoxytetrahydro-2H-pyran-4-yl)amino)-N^3a-(3-(trifluoromethyl)benzyl)hexahydrocyclopenta[c]pyrrole-2,3a(1H)-dicarboxamide] | 320 |
| COC1COCCC1N[C@@H]1C[C@H]2CN(C(N)=O)C[C@@]2(C(=O)NCc2cc(F)cc(C(F)(F)F)c2)C1 (relative stereo) [Example 11, (3aR,5R,6aR)-N^3a-(3-Fluoro-5-(trifluoromethyl)benzyl)-5-(((3S*,4S*)-3-methoxytetrahydro-2H-pyran-4-yl)amino)hexahydrocyclopenta[c]pyrrole-2,3a(1H)-dicarboxamide] | 320 |
| COC1COCCC1N[C@@H]1C[C@H]2CN(C(N)=O)C[C@@]2(C(=O)NCc2cc(C(F)(F)F)cc(C(F)(F)F)c2)C1 (relative stereo) [Example 12, (3aR,5R,6aR)-N^3a-(3,5-Bis(trifluoromethyl)benzyl)-5-(((3S*,4S*)-3-methoxytetrahydro-2H-pyran-4-yl)amino)hexahydrocyclopenta[c]pyrrole-2,3a(1H)-dicarboxamide] | 100 |
| CNC(=O)N1C[C@@H]2C[C@@H](NC3CCOCC3OC)C[C@]2(C(=O)N2CCc3ncc(C(F)(F)F)cc3C2)C1 (relative stereo) [Example 13, (3aR,5R,6aR)-5-(((3S*,4S*)-(3-Methoxytetrahydro-2H-pyran-4-yl)amino)-N-methyl-3a-(3-(trifluoromethyl)-5,6,7,8-tetrahydro-1,6-naphthyridine-6-carbonyl)hexahydrocyclopenta-[c]pyrrole-2(1H)-carboxamide] | 80 |
| COC1COCCC1N[C@@H]1C[C@H]2CN(C(=O)NC(C)C)C[C@@]2(C(=O)N2CCc3ncc(C(F)(F)F)cc3C2)C1 (relative stereo) [Example 14, (3aR,5R,6aR)-N-Isopropyl-5-(((3S*,4S*)-(3-methoxytetrahydro-2H-pyran-4-yl)amino)-3a-(3-(trifluoromethyl)-5,6,7,8-tetrahydro-1,6-naphthyridine-6-carbonyl)hexahydrocyclopenta[c]pyrrole-2(1H)-carboxamide] | 410 |
| COC1COCCC1N[C@@H]1C[C@H]2CN(C(=O)NCC(C)C)C[C@@]2(C(=O)N2CCc3ncc(C(F)(F)F)cc3C2)C1 (relative stereo) [Example 15, (3aR,5R,6aR)-N-Isobutyl-5-(((3S*4S*)-(3-methoxytetrahydro-2H-pyran-4-yl)amino)-3a-(3-(trifluoromethyl)-5,6,7,8-tetrahydro-1,6-naphthyridine-6-carbonyl)hexahydrocyclopenta-[c]pyrrole-2(1H)-carboxamide] | 110 |
| COC1COCCC1N[C@@H]1C[C@H]2CN(C(=O)Nc3ccccc3)C[C@@]2(C(=O)N2CCc3ncc(C(F)(F)F)cc3C2)C1 (relative stereo) [Example 16, (3aR,5R,6aR)-5-(((3S*,4S*)-(3-methoxytetrahydro-2H-pyran-4-yl)amino)-N-phenyl-3a-(3-(trifluoromethyl)-5,6,7,8-tetrahydro-1,6-naphthyridine-6-carbonyl)hexahydrocyclopenta-[c]pyrrole-2(1H)-carboxamide] | 470 |
| COC1COCCC1N[C@@H]1C[C@H]2CN(C(=O)NCc3ccccc3)C[C@@]2(C(=O)N2CCc3ncc(C(F)(F)F)cc3C2)C1 (relative stereo) [Example 17, (3aR,5R,6aR)-N-benzyl-5-(((3S*,4S*)-(3-methoxytetrahydro-2H-pyran-4-yl)amino)-3a-(3-(trifluoromethyl)-5,6,7,8-tetrahydro-1,6-naphthyridine-6-carbonyl)hexahydrocyclopenta-[c]pyrrole-2(1H)-carboxamide] | 60 |
| COC1COCCC1N[C@@H]1C[C@H]2CN(C(=O)NCC(C)(C)C)C[C@@]2(C(=O)N2CCc3ncc(C(F)(F)F)cc3C2)C1 (relative stereo) [Example 18, (3aR,5R,6aR)-5-(((3S*,4S*)-3-Methoxytetrahydro-2H-pyran-4-yl)amino)-N-neopentyl-3a-(3-(trifluoromethyl)-5,6,7,8-tetrahydro-1,6-naphthyridine-6-carbonyl)hexahydrocyclopenta[c]pyrrole-2(1H)-carboxamide] | 410 |
| COCCNC(=O)N1C[C@@H]2C[C@@H](NC3CCOCC3OC)C[C@]2(C(=O)N2CCc3ncc(C(F)(F)F)cc3C2)C1 (relative stereo) [Example 19, (3aR,5R,6aR)-N-(2-Methoxyethyl)-5-(((3S*,4S*)-3-methoxytetrahydro-2H-pyran-4-yl)amino)-3a-(3-(trifluoromethyl)-5,6,7,8-tetrahydro-1,6-naphthyridine-6-carbonyl)hexahydrocyclopenta[c]pyrrole-2(1H)-carboxamide] | 380 |
| COC1COCCC1N[C@@H]1C[C@H]2CN(C(=O)N(C)C)C[C@@]2(C(=O)N2CCc3ncc(C(F)(F)F)cc3C2)C1 (relative stereo) [Example 21, (3aR,5R,6aR)-5-(((3S*,4S*)-3-Methoxytetrahydro-2H-pyran-4-yl)amino)-N,N-dimethyl-3a-(3-(trifluoromethyl)-5,6,7,8-tetrahydro-1,6-naphthyridine-6-carbonyl)hexahydrocyclopenta[c]pyrrole-2(1H)-carboxamide] | 220 |
| COC1COCCC1N[C@@H]1C[C@H]2CN(C(=O)N3CCOCC3)C[C@@]2(C(=O)N2CCc3ncc(C(F)(F)F)cc3C2)C1 (relative stereo) [Example 22, ((3aR,5R,6aR)-5-(((3S*,4S*)-3-Methoxytetrahydro-2H-pyran-4-yl)amino)-2-(morpholine-4-carbonyl)octahydrocyclopenta[c]pyrrol-3a-yl)(3-(trifluoromethyl)-7,8-dihydro-1,6-naphthyridin-6(5H)-yl)methanone] | 420 |
| COC1COCCC1N[C@@H]1C[C@H]2CN(C(=O)n3ccnc3)C[C@@]2(C(=O)N2CCc3ncc(C(F)(F)F)cc3C2)C1 (relative stereo) [Example 23, ((3aR,5R,6aR)-2-(1H-Imidazole-1-carbonyl)-5-(((3S*,4S*)-3-methoxytetrahydro-2H-pyran-4-yl)amino)octahydrocyclopenta[c]pyrrol-3a-yl)(3-(trifluoromethyl)-7,8-dihydro-1,6-naphthyridin-6(5H)-yl)methanone] | 280 |
| COC1COCCC1N[C@@H]1C[C@H]2CN(C(=O)n3ccnc3)C[C@@]2(C(=O)N2CCc3ccc(C(F)(F)F)cc3C2)C1 (relative stereo) [Example 24, ((3aR,5R,6aR)-2-(1H-Imidazole-1-carbonyl)-5-(((3S*,4S*)-3-methoxytetrahydro-2H-pyran-4-yl)amino)octahydrocyclopenta[c]pyrrol-3a-yl)(7-(trifluoromethyl)-3,4-dihydroisoquinolin-2(1H)-yl)methanone] | 50 |
| COC1COCCC1N[C@@H]1C[C@H]2CN(C(N)=S)C[C@@]2(C(=O)N2CCc3ncc(C(F)(F)F)cc3C2)C1 (relative stereo) [Example 25, (3aR,5R,6aR)-5-(((3S*,4S*)-3-Methoxytetrahydro-2H-pyran-4-yl)amino)-3a-(3-(trifluoromethyl)-5,6,7,8-tetrahydro-1,6-naphthyridine-6-carbonyl)hexahydrocyclopenta-[c]pyrrole-2(1H)-carbothioamide] | 90 |
